2 molecules from article PMC8113231 (Nature Communications, 2021) can be followed below.

Where a SMILES comes first, the peptide text is derived from it. Bridges are numbered along the chain shown (N, C = ends).

Assay [1] deals with H1N1/Tokyo2619. The format is cell-based, influenza A virus.
For assay [2], the system named is H5N1/Vac-3. It counts as cell-based, influenza A virus.
Assay [3] relates to A/whooper swan/Hokkaido/1/08 (H5N1). Set-up: species or system BALB/c mice. The following applies: mouse, in vivo.
Assay [4] concerns A/whooper swan/Mongolia/3/05 (H5N1/Mongolia; clade 2.2). The experiment in a line: microbe, parasite or virus in culture. It counts as cell-based. The following applies: Influenza A virus, H5N1, MDCK; 48–72 h; read-out: EC50, plaque reduction, H5N1/Mongolia (clade 2.2).
For assay [5], the system named is A/Puerto Rico/8/34 (H1N1/PR8). The experiment in a line: microbe, parasite or virus in culture. The following applies: Influenza A virus, MDCK; 48–72 h; read-out: EC50, plaque reduction, H1N1/PR8. It counts as cell-based.
Assay [6] has as its system A/whooper swan/Hokkaido/1/08 (H5N1/Hokkaido; clade 2.3.2.1). The assay can be described thus: microbe, parasite or virus in culture. The following applies: Influenza A virus, H5N1, MDCK; 48–72 h; read-out: EC50, plaque reduction, H5N1/Hokkaido (clade 2.3.2.1). The format is cell-based.
In assay [7] the test system is A/Adachi/2/57 (H2N2). The experiment in a line: microbe, parasite or virus in culture. The conditions noted are these: Influenza A virus, H2N2, MDCK; 48–72 h; read-out: EC50, plaque reduction, H2N2/Adachi. The format is cell-based.
Assay [8] relates to A/duck/Hokkaido/Vac-3/07 (H5N1/Vac-3). The experiment in a line: microbe, parasite or virus in culture. The format is cell-based, influenza A virus. The following applies: Influenza A virus, H5N1, MDCK; 48–72 h; read-out: EC50, plaque reduction, H5N1/Vac-3.
The test system of assay [9] is A/Narita/1/09 (H1N1/Narita). The assay can be described thus: microbe, parasite or virus in culture. It counts as cell-based. The conditions noted are these: Influenza A virus, H1N1, MDCK; 48–72 h; read-out: EC50, plaque reduction, H1N1/Narita.
For assay [10], the system named is A/Tokyo/2619/09 (H1N1/Tokyo2619). The assay can be described thus: microbe, parasite or virus in culture. It counts as cell-based. The conditions noted are these: Influenza A virus, H1N1, MDCK; 48–72 h; read-out: EC50, plaque reduction, H1N1/Tokyo2619.

With `CC[C@H](C)[C@@H]1NC(=O)[C@H](C)NC(=O)[C@H](Cc2c[nH]c3ccccc23)NC(=O)[C@H](CCC(=O)O)NC(=O)[C@H](CC(C)C)NC(=O)[C@@H]2CCCN2C(=O)[C@H](Cc2ccccc2)NC(=O)[C@H](CCCCN)NC(=O)[C@H](Cc2c[nH]c3ccccc23)NC(=O)[C@H](CC(N)=O)NC(=O)[C@H](C(C)C)NC(=O)CSC[C@@H](C(=O)NCC(N)=O)NC(=O)[C@H](Cc2ccc(O)cc2)NC(=O)[C@H](CCCNC(=N)N)NC1=O` [iHA-12sf, reference compound] ({CH2CO}-VNWKFPLEWAIRYCG-NH2; thioether N-14), the “H1N1/Tokyo2619 virus-mediated RBC membrane fusion” value in assay [1] is reported as “did not reduce RBC membrane fusion”. In addition, the “H5N1/Vac-3 virus-mediated RBC membrane fusion” value in assay [2] is on record as “did not reduce RBC membrane fusion”.
As to `CC(=O)N[C@H]1[C@H]([C@H](O)[C@H](O)CO)OC(C(=O)O)=C[C@@H]1N=C(N)N` [zanamivir], in assay [3], the “Survival outcome, delayed administration” value is “all mice in the zanamivir-treated group died”. Further, the EC50 in assay [4] is below 10 nM; in assay [5] it was 115 nM; in [6], below 10 nM; in assay [7], 60 nM; in assay [8] it was 42 nM; in assay [9], above 1000 nM. The EC50 in assay [10] was above 1000 nM.
